{
  "source": "paper PMC4549042",
  "about": "“Targeting procaspase-3 with WF-208, a novel PAC-1 derivative, causes selective cancer cell apoptosis” (Journal of Cellular and Molecular Medicine, 2015)",
  "key": {"HL-60 cell line [1]": {"system": "HL-60 cell line", "experiment": "MTT cell viability assay, HL-60", "format": "cell-based, human", "details": "HL-60, 10 μM ZnSO4, 24 hrs"}, "PC-3 xenograft": {"system": "PC-3 xenograft", "experiment": "Human prostatic carcinoma PC-3 xenograft mouse model", "format": "in vivo", "protocol": "To determine the anti-tumour activity of WF-208 in vivo, viable human prostate cancer PC-3 cells (5 × 10^6/100 μl PBS per mouse) were subcutaneously (s.c.) injected into the right flank of 7- to 8-week old male SCID mice. When the average tumour volume reached 100 mm^3, mice were randomly divided into various treatment and control group (eight mice per group). Tumour size was measured once every 2 days with a calliper (calculated volume = shortest diameter^2 × longest diameter/2). Body weight, diet consumption and tumour size were recorded once every 2 days. After 2 weeks, mice were killed and tumours were excised and stored at −80°C until further analysis."}, "PBL": {"system": "PBL", "experiment": "MTT cytotoxicity in human peripheral blood lymphocytes", "format": "cell-based", "details": "72 hrs", "protocol": "(§1) Human peripheral blood lymphocytes were obtained as described previously. In brief, after diluting blood with PBS, lymphocytes were isolated by centrifugation over a density gradient of lymphocytes extracting solution for 15 min. at 280 × g. The cells were harvested, washed with PBS twice, and suspended in complete RPMI 1640 (Gibco, New York, USA) with 10% foetal bovine serum (Gibco, New York, USA).\n(§2) The cell viability effects of the tested compounds were determined by MTT assay. Cells (1 × 10^4 cells/100 μl/well) were seeded into 96-well culture plates. After overnight incubation, cells were treated with various concentrations of compounds for 72 hrs. Subsequently, 10 μl MTT solution (2.5 mg/ml in PBS) was added to each well, than the cells were incubated for an additional 3–4 hrs at 37°C. After centrifugation (200 × g, 10 min.), the medium with MTT was aspirated, followed by the addition of 100 μl DMSO. The optical density of each well was measured at 570 nm with a Biotek Synergy TM HT Reader."}, "[2]": {"system": "mouse primary cortical cell", "experiment": "Cytotoxicity in mouse primary cortical neuron cells", "format": "cell-based", "details": "neurotoxicity", "protocol": "as §2"}, "[3]": {"system": "MCF-7 cells transfected with procaspase-3", "experiment": "Cytotoxicity in MCF-7 cells transfected with procaspase-3", "format": "cell-based, human", "details": "different concentrations, vs empty vector", "protocol": "as §2\n(§3) HL-60 cells were transfected with procaspase-3 siRNA (Invitrogen, New York, USA, 100 nmol/l final concentration, Sense siRNA Sequence: GUCUAACUGGAAAACCCAAtt Antisense siRNA Sequence: UUGGGUUUUCCAGUUAGACtt) by Lipofectamine 2000 (Invitrogen) according to the manufacturer’s instructions. Scrambled siRNA (Invitrogen) was control. The cDNA of human procaspase-3 was cloned into pIRES2-EGFP expression vector, and procaspase-3 and EGFP genes were separately expressed. The pIRES2-EGFP and pIRES2-EGFP-procaspase-3 were transiently transfected into MCF-7 cells. Expression of procaspase-3 was verified by western blotting."}, "[4]": {"system": "procaspase-3-silenced HL-60 cells", "experiment": "Cytotoxicity in procaspase-3 silenced HL-60 cells", "format": "cell-based, human", "details": "different concentrations, 24 hrs, vs scrambled siRNA control", "protocol": "as §2, with “After overnight incubation, cells were treated with various concentrations of compounds for 72 hrs.” left out\nas §3"}, "HL-60 cell line [5]": {"system": "HL-60 cell line", "experiment": "MTT cell viability assay, HL-60", "format": "cell-based", "details": "Homo sapiens, 72 hrs", "protocol": "as §2"}, "human normal cells": {"system": "human normal cells", "experiment": "MTT cytotoxicity in human normal cells", "format": "cell-based", "text": "Human malignant cell lines, A549, Colo-205, DU145, NCI-H226, Hep-3B, Hep-G2, K562, MCF-7, U-87, GBC-SD, MDA-MB-435S, PC-3, U-937, HL60, SH-SY5Y and human normal cell lines, MCF-10A and L-02, HUVEC were obtained from the American Type Culture Collection (Manassas, VA, USA) and National Center for Medical Culture Collection (Shanghai, China). They were routinely cultured in RPMI 1640, DMEM or DMEM/F12 (Gibco, New York, USA) supplemented with 10% foetal bovine serum (Gibco, New York, USA) and maintained at 37°C in a humidified incubator with 5% CO2.\nas §1\nThe cell viability effects of the tested compounds were determined by MTT assay. Cells (1 × 10^4 cells/100 μl/well) were seeded into 96-well culture plates. After overnight incubation, cells were treated with various concentrations of compounds for 72 hrs. […] The optical density of each well was measured at 570 nm with a Biotek Synergy TM HT Reader."}, "rh-procaspase-3": {"target": "T1, rh-procaspase-3 (Homo sapiens, UniProt P42574)", "T1 construct": "purchased R&D System (Minneapolis, USA)", "T1 sequence (P42574 1-277)": "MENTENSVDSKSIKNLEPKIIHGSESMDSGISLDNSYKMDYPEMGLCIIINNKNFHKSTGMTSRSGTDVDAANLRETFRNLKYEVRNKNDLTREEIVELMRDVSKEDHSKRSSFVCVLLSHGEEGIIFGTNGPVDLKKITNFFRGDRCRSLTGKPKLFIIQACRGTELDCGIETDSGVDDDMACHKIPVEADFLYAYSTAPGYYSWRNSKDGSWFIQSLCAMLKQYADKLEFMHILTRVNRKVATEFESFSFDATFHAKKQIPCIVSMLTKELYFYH", "experiment": "Caspase-3 activation assay (procaspase-3 activation in vitro)", "format": "biochemical", "details": "rh-procaspase-3, concentrations 0.08–100 μM", "protocol": "Procaspase-3 protein was purchased from R&D System (Minneapolis, USA). Procaspase-3 protein was added into 384-well plates. Tested compounds (or DMSO as control) were then added to achieve a final concentration of procaspase-3 of 50 ng/ml. Each plate was incubated for 2 hrs at 37°C. Then caspase-3 peptide substrate (acetyl Asp-Glu-Val-Asp-[…] (Ac-DEVD-pNa), 200 μM) were added. The absorbance of each well was measured at 405 nm in kinetic mode for 10 min [13]."}, "[6]": {"details": "Western blot of tumour tissue after drug exposure"}},
  "note": "Read-outs that look alike come from different tables or passages of the source.",
  "data": [
    {"smiles": "O=C(CN1CCN(Cc2nc(-c3ccc(COc4ccc(Cl)cc4)cc3)no2)CC1)N/N=C/c1ccc(OCc2csc(Cc3ccc4c(c3)OCO4)n2)cc1O", "note": "[C2]", "values": [
      {"measurement": "cytotoxicity on co-treatment with ZnSO4", "setting": "HL-60 cell line [1]", "result": "significantly relieved"},
      {"measurement": "influence on body weight", "setting": "PC-3 xenograft; 2.5 mg/kg i.v., 15 days", "result": "minimal influence"},
      {"measurement": "tumour volume compared with control group", "setting": "PC-3 xenograft; 2.5 mg/kg i.v., 15 days", "result": "significantly reduced"},
      {"measurement": "expression of activated caspase-3 and cleaved PARP in tumour tissue", "setting": "PC-3 xenograft; [6]", "result": "increased"},
      {"measurement": "expression of survivin and XIAP in tumour tissue", "setting": "PC-3 xenograft; [6]", "result": "decreased"},
      {"measurement": "IC50", "setting": "PBL", "result": 743, "unit": "µM"},
      {"measurement": "IC50", "setting": "[2]", "result": 96.2, "unit": "µM"},
      {"measurement": "cytotoxic effect in MCF-7 cells transfected with procaspase-3", "setting": "[3]", "result": "more sensitive"},
      {"measurement": "cytotoxic effect in procaspase-3-silenced HL-60 cells", "setting": "[4]", "result": "less than control HL-60 cells"},
      {"measurement": "IC50", "setting": "HL-60 cell line [5]", "result": 0.08, "unit": "µM"},
      {"measurement": "IC50", "setting": "human normal cells; Figure 3 panel D, read-out: Mean (IC50) of human normal cells", "result": 348, "unit": "µM"},
      {"measurement": "IC50", "setting": "human normal cells; text b44, read-out: mean IC50 value on three different normal cells", "result": 216, "unit": "µM"},
      {"measurement": "EC50", "setting": "rh-procaspase-3", "result": 0.56, "unit": "µM"}
    ]}
  ]
}
